Data published in US3984554A, “Animal fodder compositions containing a 4-amino-pyrimido-( 4,5,b)-quinoxaline-5,10-dioxide and method of using same” (Bayer Aktiengesellschaft, priority 1970, dated 1976).
≈ marks a conversion by molar mass, not a printed value.

Experiments:
[1] = tested on: Escherichia coli A 261; test: Minimum inhibitory concentration (MIC) in the plate test; assay type: cell-based; conditions: A261, pH 7.4
Excerpt: (§1) The compounds according to the invention are effective against Gram-negative and Gram-positive bacteria. Favorable inhibition values are obtained in the plate test (Table 1) against staphylococci and streptococci which are Gram-positive bacteria, and against enterobacteria (for example Escherichia coli, Proteus and Klebsiella) which are Gram-negative bacteria.
(§2) Minimum inhibitory concentration (MIC) in the plate test:
(§3) The medium used had the following composition
(§4) Disodium phosphate 2.0 g
(§5) Adenine sulphate 0.01 g
(§6) Guanine hydrochloride 0.01 g
(§7) 1000 ml of distilled water
(§8) pH value of the medium:
(§9) Minimum inhibitory concentrations in γ/ml

[2] = tested on: Escherichia coli C 165; test: as above; assay type: cell-based; conditions: C165, pH 7.4
Excerpt: as §1, §2, §3, §4, §5, §6, §7, §8, §9

[3] = tested on: Klebsiella 8085; test: as above; assay type: cell-based; conditions: pH 7.4
Excerpt: as §1, §2, §3, §4, §5, §6, §7, §8, §9

[4] = tested on: Proteus vulgaris; test: as above; assay type: cell-based; conditions: pH 7.4
Excerpt: as §1, §2, §3, §4, §5, §6, §7, §8, §9

[5] = tested on: Pseudomonas aeruginosa Bonn; test: as above; assay type: cell-based; conditions: pH 7.4
Excerpt: as §1, §2, §3, §4, §5, §6, §7, §8, §9

[6] = tested on: Staphylococcus aureus 133; test: as above; assay type: cell-based; conditions: pH 7.4
Excerpt: as §1, §2, §3, §4, §5, §6, §7, §8, §9

[7] = tested on: Streptococcus pyogenes W; test: as above; assay type: cell-based; conditions: pH 7.4
Excerpt: as §1, §2, §3, §4, §5, §6, §7, §8, §9

[8] = Chick fattening experiment (fodder additive); assay type: in vivo; conditions: chicks, 20 ppm in fodder; for Ratio of total weight increase/control: control 100.0
Excerpt: The good effectiveness of the compounds according to the invention as fodder additives can be seen from the chick fattening experiment described below (Table 2).
The substances, ground with the fodder, were fed to one-day old chicks. The feeding lasted for seven weeks. Table 2 below gives the experimental data for the compound obtainable according to Example 2, for each of the 7 weeks.

Row | SMILES | MIC [1] [µg/mL] | MIC [2] [µg/mL] | MIC [3] [µg/mL] | MIC [4] [µg/mL] | MIC [5] [µg/mL] | MIC [6] [µg/mL] | MIC [7] [µg/mL] | other results
1 | CNc1ncnc2c1[n+]([O-])c1ccccc1[n+]2[O-] [Example 1, 4-methylamino-pyrimido-(4,5,b)-quinoxaline-5,10-dioxide] | 5 (≈ 20.6 µM) | 5 (≈ 20.6 µM) | 5 (≈ 20.6 µM) | 5 (≈ 20.6 µM) | 50 (≈ 206 µM) | 2.5 (≈ 10.3 µM) | 20 (≈ 82.2 µM) | –
2 | CCNc1ncnc2c1[n+]([O-])c1ccccc1[n+]2[O-] [Example 2] | 20 (≈ 77.7 µM) | 160 (≈ 622 µM) | 10 (≈ 38.9 µM) | 10 (≈ 38.9 µM) | 150 (≈ 583 µM) | 5 (≈ 19.4 µM) | 20 (≈ 77.7 µM) | Total weight increase ([8]; week 1, control 84): 92 g; Ratio of total weight increase/control ([8]; week 1): 109.5%; Ratio of total weight increase/control ([8]; week 2): 105.6%; Total weight increase ([8]; week 2, control 248): 262 g; Ratio of total weight increase/control ([8]; week 3): 108.6%; Total weight increase ([8]; week 3, control 429): 466 g; Ratio of total weight increase/control ([8]; week 4): 111.7%; Total weight increase ([8]; week 4, control 607): 678 g; Ratio of total weight increase/control ([8]; week 5): 107.7%; Total weight increase ([8]; week 5, control 922): 993 g; Ratio of total weight increase/control ([8]; week 6): 104.8%; Total weight increase ([8]; week 6, control 1250): 1310 g; Ratio of total weight increase/control ([8]; week 7): 106.4%; Total weight increase ([8]; week 7, control 1479): 1574 g
3 | CCCNc1ncnc2c1[n+]([O-])c1ccccc1[n+]2[O-] [Example 3] | 100 (≈ 369 µM) | 100 (≈ 369 µM) | 100 (≈ 369 µM) | 100 (≈ 369 µM) | 150 (≈ 553 µM) | 10 (≈ 36.9 µM) | 20 (≈ 73.7 µM) | –
4 | CC(C)Nc1ncnc2c1[n+]([O-])c1ccccc1[n+]2[O-] [Example 4] | 100 (≈ 369 µM) | 100 (≈ 369 µM) | – | 100 (≈ 369 µM) | 150 (≈ 553 µM) | 10 (≈ 36.9 µM) | 20 (≈ 73.7 µM) | –
5 | CCCCNc1ncnc2c1[n+]([O-])c1ccccc1[n+]2[O-] [Example 5] | – | – | – | – | – | 10 (≈ 35 µM) | 20 (≈ 70.1 µM) | –
6 | [O-][n+]1c2ccccc2[n+]([O-])c2c(NC3CCCCC3)ncnc21 [Example 6] | – | – | – | – | – | 10 (≈ 32.1 µM) | – | –
7 | [O-][n+]1c2ccccc2[n+]([O-])c2c(NCCO)ncnc21 [Example 7] | 100 (≈ 366 µM) | 100 (≈ 366 µM) | 150 (≈ 549 µM) | 100 (≈ 366 µM) | 100 (≈ 366 µM) | 100 (≈ 366 µM) | 10 (≈ 36.6 µM) | –
